Reference: patent publication EP4763841A1, “PYRIDAZINONE COMPOUND AND USE THEREOF” (Xi'an Xintong Pharmaceutical Research Co., Ltd., priority 2023, dated 2025)
pEC50: −log10 of the molar value. Read-outs that look alike come from different tables or passages of the source.

How the values were obtained:
THRβ = target: T1, THRβ (Homo sapiens, UniProt P10828); test: HTRF test of agonist-induced SRC3-2 coactivator peptide recruitment to THRβ-LBD; assay type: biochemical; conditions: for agonistic activity on THRβ compared with Resmetirom / selectivity of agonistic effect for THRβ over THRα: result in words
T1 sequence (P10828 217-461 limits assumed): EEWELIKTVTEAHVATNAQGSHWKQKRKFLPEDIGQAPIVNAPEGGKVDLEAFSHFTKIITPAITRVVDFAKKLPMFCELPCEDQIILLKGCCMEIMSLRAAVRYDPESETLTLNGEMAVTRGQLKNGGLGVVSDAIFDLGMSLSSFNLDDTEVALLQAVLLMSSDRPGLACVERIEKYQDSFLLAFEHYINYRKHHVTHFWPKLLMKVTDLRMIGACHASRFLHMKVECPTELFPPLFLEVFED
Method: (§1) 1. Experiment of binding of compounds to THRβ and THRα
(§2) Test principle: The effect of test compounds on THRβ and THRα was tested by using a method of HTRF. An MAb Anti GST-Eu cryptate antibody binds to GST-tagged THRα-LBD (or THRβ-LBD), while Streptavidin-XL665 binds to a biotin-labeled SRC3-2 coactivator peptide. […] At the same time, the resulting decrease in the distance between XL665-labeled SRC3-2 and an Eu-anti-GST antibody increases a THRFRET signal. The agonistic capacity at this target was assessed by the effect of compounds on the activity of THRα-LBD (THRβ-LBD) at different concentrations.
Test method: THRβ test procedures:
(§3) • (1) a 1×reaction solution was prepared. • (2) Preparation of compounds: the compound test starting concentration was 20 µM, 3-fold dilution was performed, 10 concentrations were set, and duplicate testing was set for each concentration. 100-fold dilution was performed in a 384-well Source plate to a corresponding solution with a final concentration, and then 200 nL of the solution was transferred to a 384-well reaction plate with Echo550 to be tested. 200 nL of 100% DMSO and a test article were respectively transferred to Min and Max wells. • (3) A 2×protein solution was prepared from the 1×reaction solution. • (4) A 4×SRC3-2 solution was prepared from the 1×reaction solution. • (5) A mixed solution of 4×GST-Eu cryptate and XL665 was prepared from the 1×reaction solution. • (6) 10 µl of the 2×protein solution was added to each well of the reaction plate, centrifugation was performed at 1000 rpm for 1 min, and incubation was performed at room temperature for 30 min. • (7) 5 µl of the 4×SRC3-2 solution was added to each well of the reaction plate, and centrifugation was performed at 1000 rpm for 1 min. • (8) 5 µL of the mixed solution of 4×GST-Eu cryptate and XL665 was added to each well of the reaction plate, centrifugation was performed at 1000 rpm for 1 min, and incubation was performed at 25°C. • (9) A fluorescence signal was read by using EnVision.

THRα = THRα (Homo sapiens, UniProt P10827); test: HTRF test of agonist-induced SRC3-2 coactivator peptide recruitment to THRα-LBD; assay type: biochemical; conditions: for pEC50: HTRF, starting concentration 20 µM, 3-fold dilution, 10 concentrations, duplicate; for agonistic activity on THRα: result in words
Method: as §1, §2, §3
THRα test procedures were the same as above.

[1] = Comparison of compound metabolites by human liver microsome incubation (LC-MS/MS); assay type: in vitro ADME; conditions: 10 µM compound, human liver microsome 1.0 mg/mL, β-NADPH 1.0 mM, 37°C, 60 min
Method: The purpose of this experiment was to evaluate the comparison of the content of major metabolites of human liver microsome incubated compounds.
Sample treatment: a sample was precipitated with acetonitrile (ACN) containing 0.1% formic acid in a ratio of 1:2, and further centrifuged. A supernatant was dried with a nitrogen flow. A residue was reconstituted in […] of 10% ACN and 90% H2O containing 0.1% formic acid. […] of the reconstituted material was injected into an LC-MS/MS system for analysis.

[2] = In vivo pharmacokinetic study of elimination phase half-life after single IV bolus; design: species or system Sprague Dawley rats; conditions: Sprague-Dawley, rat, whole blood, intravenous, I.V bolus, 5 mg/kg, rats, read-out: Elimination phase half-life (T1/2) (converted)
Method: Blood samples were collected from animals (IV group) before administration and at time points of 0.083 h, 0.25 h, 0.5 h, 1 h, 2 h, 4 h, 8 h, and 24 h after the end of administration. • Sample treatment: prior to blood collection, a centrifuge tube with 10 µl of EDTA-K2 and 1.2 mL of 50% acetonitrile-DMSO (a volume ratio of whole blood to 50% acetonitrile-DMSO is approximately 1:4) was placed in an ice box filled with crushed ice. The collected blood was added to the centrifuge tube, vortexed for at least 5 min, and then temporarily stored and transported in the ice box filled with crushed ice; and the blood was centrifuged at 12,000 g for 10 min at 4°C, wherein centrifugation was completed within 1 h after blood collection. A whole blood supernatant after centrifugation was transferred to a newly labeled tube, and transferred to -60°C or below for storage for analytical testing.

NASH model of B-DIO mice = test: Efficacy test in NASH model of B-DIO mice (HFD + CCL4); assay type: in vivo
Excerpt: An objective of this experiment was to evaluate the pharmacodynamics of compounds of the present invention by using an NASH model of B-DIO mice.
Five C57BL/6 mice on normal diet were assigned to an experimental group G1, and 25 B-DIO mice were randomly assigned to five experimental groups according to the body weight, with 5 mice in each group.
The day of grouping was Day-1, intraperitoneal injection was started on Day 0 in the groups G2-G6 for CCL4 modeling, the concentration of a modeling agent is 0.2 µl/g, the modeling frequency was twice a week, and administration was started on Day 0.
The body weight was measured twice a week after grouping. At the end of the experiment (Day 26), the mice were fasted for 4 h, and non-anticoagulated blood of the mice in the groups G1-G6 was collected and centrifuged, and a serum was taken for blood biochemical testing. Livers in the groups G1-G6 were collected and weighed, 20 mg of the liver was weighed for determination of TC and TG, and the remaining liver was placed in formalin for fixation for pathological observation.

[3] = HTRF, starting concentration 20 µM, 3-fold dilution, 10 concentrations, duplicate, read-out: THRβ (EC50)
[4] = liver, Day 26, 3 mg/kg I.G. Q.D., HFD+CCL4, mean±standard error

Chain of THRα (P10827 148-410 isoform P10827-2 limits assumed, other chains not shown): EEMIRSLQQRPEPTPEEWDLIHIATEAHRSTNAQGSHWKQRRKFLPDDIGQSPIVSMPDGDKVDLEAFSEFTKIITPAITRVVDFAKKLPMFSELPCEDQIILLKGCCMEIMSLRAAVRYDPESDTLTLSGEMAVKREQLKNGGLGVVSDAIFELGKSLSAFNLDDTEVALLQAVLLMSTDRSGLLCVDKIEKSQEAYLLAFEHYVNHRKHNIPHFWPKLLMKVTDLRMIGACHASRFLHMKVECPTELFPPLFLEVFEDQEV

pEC50 (THRβ; [3]) | SMILES | agonistic activity on THRβ compared with Resmetirom (THRβ) | pEC50 (THRα) | selectivity of agonistic effect for THRβ over THRα (THRβ) | agonistic activity on THRα (THRα) | other results
7.70 | [2H]C([2H])([2H])C(c1cc(Oc2c(Cl)cc(-n3nc(CF)c(=O)[nH]c3=O)cc2Cl)n[nH]c1=O)C([2H])([2H])[2H] [Compound 1] | significantly better than that of Resmetirom | 6.49 | – | – | –
7.66 | CC(C)c1cc(Oc2c(Cl)cc(-n3nc(CF)c(=O)[nH]c3=O)cc2Cl)n[nH]c1=O [Compound X1, reference compound] | – | 7.02 | – | – | –
– | Cc1c(C(C)C)c(Oc2c(Cl)cc(-n3nc(CF)c(=O)[nH]c3=O)cc2Cl)n[nH]c1=O [Compound 17] | significantly better than that of Resmetirom | < 5.30 | selective agonistic effects on THRβ | weak agonistic activity on THRα | pEC50 (THRβ): 7.34
– | CC(C)c1cc(Oc2c(Cl)cc(-n3nc(C#N)c(=O)[nH]c3=O)cc2Cl)n[nH]c1=O [Resmetirom, reference compound] | – | – | – | – | half-life [2]: 2.98 h; area proportion of lipid droplets in the liver (oil red O) compared with the model group G2 (NASH model of B-DIO mice; G3, 3 mg/kg, Day 26, result in words (FIG. 8)): decreased but no significant difference was seen; liver fibrosis (Sirius red) compared with the model group G2 (NASH model of B-DIO mice; G3, 3 mg/kg, Day 26, result in words (FIG. 9)): certain improvement effects on liver fibrosis; TC (NASH model of B-DIO mice; [4]): 56.44 ± 0.85 µmol/g; TG (NASH model of B-DIO mice; [4]): 74.26 ± 4.34 µmol/g; TG (NASH model of B-DIO mice; serum, Day 26, 3 mg/kg I.G. Q.D., HFD+CCL4, mean±standard error): 1.17 ± 0.06 mM

SMILES | pEC50 (THRβ; [3]) | agonistic activity on THRβ compared with Resmetirom (THRβ) | pEC50 (THRα) | selectivity of agonistic effect for THRβ over THRα (THRβ) | agonistic activity on THRα (THRα) | other results
Cc1c(Oc2c(Cl)cc(-n3nc(CF)c(=O)[nH]c3=O)cc2Cl)n[nH]c(=O)c1C(C)C [Compound 16] | 7.96 | significantly better than that of Resmetirom | < 5.30 | selective agonistic effects on THRβ | weak agonistic activity on THRα | Monooxidized metabolite percent content (%) [1]: 9.7%; Monooxidized metabolite percent content (%) ([1]; listed as compound 16): 9.7%
